Test results as given in patent US20130274284A1 (DR. REDDY'S LABORATORIES, INC., priority 2010, published 2013).

Assay: storage stability with respect to degradation impurities (OXTP impurity)
Type: physicochemical
Details: for stability with respect to impurities such as OXTP impurity: stored in presence of desiccant

Row | stability with respect to impurities such as OXTP impurity | degradation during storage leading to impurities such as OXTP impurity (during the storage) | SMILES
1 | greater stability | – | CC(=O)Oc1cc2c(s1)CCN(C(C(=O)C1CC1)c1ccccc1F)C2.Cl (racemic) [prasugrel hydrochloride, 5-[(1RS)-2-cyclopropyl-1-(2-fluorophenyl)-2-oxoethyl]-4,5,6,7-tetrahydrothieno[3,2-c]pyridin-2-yl acetate hydrochloride]
2 | greater stability | degrades during the storage | CC(=O)Oc1cc2c(s1)CCN(C(C(=O)C1CC1)c1ccccc1F)C2 (stereo not drawn) [prasugrel, 5-(2-cyclopropyl-1-(2-fluorophenyl)-2-oxoethyl)-4,5,6,7-tetrahydrothieno[3,2-c]pyridin-2-yl acetate]
